Measured values published in patent publication US20260070945A1, “MACROCYCLIC IMMUNOMODULATORS” (Bristol-Myers Squibb Company, priority 2022, published 2026).
Where a SMILES comes first, the peptide text is derived from it. Bridges are numbered along the chain shown (N, C = ends). [ ]: non-standard residue; d: D form. The star is where a group is joined. Phe(4-COOH) = N[C@@H](Cc1ccc(C(=O)O)cc1)C(=O)O; Bip = N[C@@H](Cc1ccc(-c2ccccc2)cc1)C(=O)O; Phe(3-Me) = Cc1cccc(C[C@H](N)C(=O)O)c1; NH(CH2)12COOH = O=C(O)CCCCCCCCCCCCN*; Val(3-OH) = CC(C)(O)[C@H](N)C(=O)O; 4Pal = N[C@@H](Cc1ccncc1)C(=O)O; Cha = N[C@@H](CC1CCCCC1)C(=O)O; Cit = NC(=O)NCCC[C@H](N)C(=O)O; Carboxymethyl = O=C(O)C*; NMeA = CN[C@@H](C)C(=O)O; Aun = NCCCCCCCCCCC(=O)O; Dab = NCC[C@H](N)C(=O)O; AEEA = NCCOCCOCC(=O)O; Propargyl = C#CC*

molecular target: T1, PD-1/PD-L1 interaction (PE-labeled human PD-L1-Ig binding to Jurkat cell line over-expressing human PD-1) (Homo sapiens, UniProt Q15116); experiment: Jurkat-PD-1 Cell Binding High-Content Screening Assay (CBA); settings: Jurkat-hPD-1 cells, PE-labeled PD-L1-Ig 20 nM final; read-out: Jurkat HPD1 PDL1 IC50
T1 construct: expressed in transfected cells; host or cells: Jurkat
T1 sequence (Q15116 25-288): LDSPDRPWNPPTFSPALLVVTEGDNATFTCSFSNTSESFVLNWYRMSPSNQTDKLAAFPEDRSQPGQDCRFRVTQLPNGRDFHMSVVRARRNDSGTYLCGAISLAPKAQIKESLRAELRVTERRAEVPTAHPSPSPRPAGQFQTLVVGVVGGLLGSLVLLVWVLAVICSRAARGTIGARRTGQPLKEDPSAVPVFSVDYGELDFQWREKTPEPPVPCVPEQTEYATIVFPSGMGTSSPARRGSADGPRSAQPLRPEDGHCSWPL
Procedure, shortened: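 High-content imaging read-out of PE-PD-L1-Ig binding (20 nM final, 1 h) to Jurkat-hPD-1 cells, after 2 h compound exposure at 37 °C in DMEM with 10% FCS. Nuclei counterstained with Hoechst 33342 after paraformaldehyde fixation.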

| SMILES | IC50 |
| --- | --- |
| CC(C)C[C@@H]1NC(=O)[C@H](Cc2c[nH]c3ccccc23)NC(=O)[C@H](CC(=O)O)NC(=O)[C@H](Cc2ccc(C(=O)O)cc2)NC(=O)[C@H](Cc2ccc(OCC(=O)O)cc2)NC(=O)CSC[C@@H](C(=O)NCCOCCOCC(=O)NCCCCCCCCCCC(=O)O)NC(=O)[C@H](CCCNC(N)=O)NC(=O)[C@H](C(C)C)NC(=O)[C@H](CC2CCCCC2)NC(=O)[C@H](CCN)NC(=O)[C@@H](CC(C)C)NC(=O)[C@H](C)N(C)C(=O)[C@H](Cc2ccc(O)cc2)NC(=O)[C@H](Cc2ccc(-c3ccccc3)cc2)NC1=O [Example 1101] ({CH2CO}-Y(Carboxymethyl)[Phe(4-COOH)]DWL[Bip]Y[NMeA][dL][Dab][Cha]V[Cit]C[AEEA][Aun]-OH; thioether N-14) | 48 nM |
| C#CCOC[C@@H]1NC(=O)[C@H](C(C)C)NC(=O)[C@H](CC2CCCCC2)NC(=O)[C@H](CCN)NC(=O)[C@@H](CC(C)C)NC(=O)[C@H](C)N(C)C(=O)[C@H](Cc2ccc(OCC(=O)O)cc2)NC(=O)[C@H](Cc2ccc(-c3ccccc3)cc2)NC(=O)[C@H](Cc2ccc(OCC(=O)O)cc2)NC(=O)[C@H](Cc2c[nH]c3ccccc23)NC(=O)[C@H](CC(=O)O)NC(=O)[C@H](Cc2ccncc2)NC(=O)[C@H](Cc2ccc(OCC(=O)O)cc2)NC(=O)CSC[C@@H](C(=O)N[C@@H](CCN)C(=O)NCCOCCOCC(=O)NCCCCCCCCCCC(=O)O)NC1=O [Example 1103] ({CH2CO}-Y(Carboxymethyl)[4Pal]DWY(Carboxymethyl)[Bip]Y(Carboxymethyl)[NMeA][dL][Dab][Cha]VS(Propargyl)C[Dab][AEEA][Aun]-OH; thioether N-14) | 19 nM |
| Cc1cccc(C[C@@H]2NC(=O)[C@H](CC(=O)O)NC(=O)[C@H](Cc3ccc(C(=O)O)cc3)NC(=O)[C@H](Cc3ccncc3)NC(=O)CSC[C@@H](C(=O)N[C@@H](CCN)C(=O)NCCOCCOCC(=O)NCCCCCCCCCCCCC(=O)O)NC(=O)[C@H](CCC(=O)O)NC(=O)[C@H](C(C)(C)O)NC(=O)[C@H](CC3CCCCC3)NC(=O)[C@H](CCN)NC(=O)[C@@H](CC(C)C)NC(=O)[C@H](C)N(C)C(=O)[C@H](Cc3ccc(C(=O)O)cc3)NC(=O)[C@H](Cc3ccc(-c4ccccc4)cc3)NC(=O)[C@H](Cc3ccc(C(=O)O)cc3)NC2=O)c1 [Example 1104] ({CH2CO}-[4Pal][Phe(4-COOH)]D[Phe(3-Me)][Phe(4-COOH)][Bip][Phe(4-COOH)][NMeA][dL][Dab][Cha][Val(3-OH)]EC[Dab][AEEA]-{NH(CH2)12COOH}; thioether N-14) | 559 nM |
| Cc1cccc(C[C@@H]2NC(=O)[C@H](CC(=O)O)NC(=O)[C@H](Cc3ccc(C(=O)O)cc3)NC(=O)[C@H](Cc3ccc(OCC(=O)O)cc3)NC(=O)CSC[C@@H](C(=O)N[C@@H](CCN)C(=O)NCCOCCOCC(=O)NCCOCCOCC(=O)NCCCCCCCCCCCCC(=O)O)NC(=O)[C@H](CO)NC(=O)[C@H](C(C)(C)O)NC(=O)[C@H](CC3CCCCC3)NC(=O)[C@H](CCN)NC(=O)[C@@H](CC(C)C)NC(=O)[C@H](C)N(C)C(=O)[C@H](CCC(N)=O)NC(=O)[C@H](Cc3ccc(-c4ccccc4)cc3)NC(=O)[C@H](Cc3ccc(C(=O)O)cc3)NC2=O)c1 [Example 1105] ({CH2CO}-Y(Carboxymethyl)[Phe(4-COOH)]D[Phe(3-Me)][Phe(4-COOH)][Bip]Q[NMeA][dL][Dab][Cha][Val(3-OH)]SC[Dab][AEEA][AEEA]-{NH(CH2)12COOH}; thioether N-14) | 7.2 nM |
| CC(C)C[C@H]1NC(=O)[C@H](C)N(C)C(=O)[C@H](Cc2ccc(OCC(=O)O)cc2)NC(=O)[C@H](Cc2ccc(-c3ccccc3)cc2)NC(=O)[C@H](Cc2ccc(OCC(=O)O)cc2)NC(=O)[C@H](Cc2c[nH]c3ccccc23)NC(=O)[C@H](CC(=O)O)NC(=O)[C@H](Cc2ccncc2)NC(=O)[C@H](Cc2ccc(OCC(=O)O)cc2)NC(=O)CSC[C@@H](C(=O)N[C@@H](CCN)C(=O)NCCCCCCCCCCC(=O)O)NC(=O)[C@H](CCCn2cc(CN(C)C(=O)c3ccc(F)cc3)nn2)NC(=O)[C@H](C(C)C)NC(=O)[C@H](CC2CCCCC2)NC(=O)[C@H](CCN)NC1=O [Example 1110] | 23.1 nM |
| CC(C)C[C@@H]1NC(=O)[C@H](Cc2c[nH]c3ccccc23)NC(=O)[C@H](CC(=O)O)NC(=O)[C@H](Cc2ccc(C(=O)O)cc2)NC(=O)[C@H](Cc2ccc(OCC(=O)O)cc2)NC(=O)CSC[C@@H](C(=O)NCCOCCOCC(=O)NCCCCCCCCCCC(=O)O)NC(=O)[C@H](CCCNC(N)=O)NC(=O)[C@H](C(C)(C)O)NC(=O)[C@H](CC2CCCCC2)NC(=O)[C@H](CCN)NC(=O)[C@@H](CC(C)C)NC(=O)[C@H](C)N(C)C(=O)[C@H](C(C)C)NC(=O)[C@H](Cc2ccc(-c3ccccc3)cc2)NC1=O [Example 1111] ({CH2CO}-Y(Carboxymethyl)[Phe(4-COOH)]DWL[Bip]V[NMeA][dL][Dab][Cha][Val(3-OH)][Cit]C[AEEA][Aun]-OH; thioether N-14) | 9.1 nM |
| CC(C)C[C@@H]1NC(=O)[C@H](Cc2c[nH]c3ccccc23)NC(=O)[C@H](CC(=O)O)NC(=O)[C@H](Cc2ccc(C(=O)O)cc2)NC(=O)[C@H](Cc2ccc(OCC(=O)O)cc2)NC(=O)CSC[C@@H](C(=O)NCCOCCOCC(=O)NCCCCCCCCCCC(=O)O)NC(=O)[C@H](CCC(=O)O)NC(=O)[C@H](C(C)(C)O)NC(=O)[C@H](CC2CCCCC2)NC(=O)[C@H](CCN)NC(=O)[C@@H](CC(C)C)NC(=O)[C@H](C)N(C)C(=O)[C@H](C(C)C)NC(=O)[C@H](Cc2ccc(-c3ccccc3)cc2)NC1=O [Example 1112] ({CH2CO}-Y(Carboxymethyl)[Phe(4-COOH)]DWL[Bip]V[NMeA][dL][Dab][Cha][Val(3-OH)]EC[AEEA][Aun]-OH; thioether N-14) | 47.1 nM |
| CC(C)C[C@@H]1NC(=O)[C@H](Cc2c[nH]c3ccccc23)NC(=O)[C@H](CC(=O)O)NC(=O)[C@H](Cc2ccc(C(=O)O)cc2)NC(=O)[C@H](Cc2ccc(OCC(=O)O)cc2)NC(=O)CSC[C@@H](C(=O)NCCOCCOCC(=O)NCCCCCCCCCCC(=O)O)NC(=O)[C@H](CCC(=O)O)NC(=O)[C@H](C(C)(C)O)NC(=O)[C@H](CC2CCCCC2)NC(=O)[C@H](CCN)NC(=O)[C@@H](CC(C)C)NC(=O)[C@H](C)N(C)C(=O)[C@H](C(C)C)NC(=O)[C@H](Cc2ccc(-c3ccccc3)cc2)NC1=O [Example 1114] ({CH2CO}-Y(Carboxymethyl)[Phe(4-COOH)]DWL[Bip]V[NMeA][dL][Dab][Cha][Val(3-OH)]EC[AEEA][Aun]-OH; thioether N-14) | 43.7 nM |
| CC(C)C[C@@H]1NC(=O)[C@H](Cc2c[nH]c3ccccc23)NC(=O)[C@H](CC(=O)O)NC(=O)[C@H](Cc2ccc(C(=O)O)cc2)NC(=O)[C@H](Cc2ccc(OCC(=O)O)cc2)NC(=O)CSC[C@@H](C(=O)NCCOCCOCC(=O)NCCCCCCCCCCC(=O)O)NC(=O)[C@H](CCN)NC(=O)[C@H](C(C)(C)O)NC(=O)[C@H](CC2CCCCC2)NC(=O)[C@H](CCN)NC(=O)[C@@H](CC(C)C)NC(=O)[C@H](C)N(C)C(=O)[C@H](C(C)C)NC(=O)[C@H](Cc2ccc(-c3ccccc3)cc2)NC1=O [Example 1120] ({CH2CO}-Y(Carboxymethyl)[Phe(4-COOH)]DWL[Bip]V[NMeA][dL][Dab][Cha][Val(3-OH)][Dab]C[AEEA][Aun]-OH; thioether N-14) | 13.6 nM |
